In PubChem BioAssay (NCI):
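These data come from cells grown in 96-well plates and exposed to compound for 48 hours at five concentrations. Abbreviation: GI50, concentration required for 50% inhibition of growth. TGI: total growth inhibition.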

How the values were obtained:
Test in all cases: NCI tumour cell line growth inhibition, 48 h
[1] = test system: OVCAR-4 ovarian
[2] = test system: TK-10 renal
[3] = test system: MALME-3M melanoma
[4] = test system: MOLT-4 leukemia
[5] = test system: KM12 colon
[6] = test system: OVCAR-3 ovarian
[7] = test system: UO-31 renal
[8] = test system: M14 melanoma
[9] = test system: PC-3 prostate
[10] = test system: NCI/ADR-RES ovarian

CCOC(=O)CNC(=O)c1[nH]cnc1/N=N/N(C)C
TGI [1]: > 100 µM | TGI [2]: > 100 µM | TGI [3]: > 100 µM | TGI [4]: > 100 µM | TGI [5]: > 100 µM | TGI [6]: > 100 µM | TGI [7]: > 100 µM | TGI [8]: > 100 µM

CC(=O)O[C@H]1CC[C@@H](OC(C)=O)[C@H]2[C@H](O)[C@H](O)[C@@H]1n1c(=O)n(-c3ccccc3)c(=O)n12
TGI [1]: > 100 µM | TGI [2]: > 100 µM | TGI [3]: > 100 µM | TGI [9]: > 100 µM | TGI [4]: > 100 µM | TGI [5]: > 100 µM | TGI [10]: > 100 µM | TGI [6]: > 100 µM | TGI [7]: > 100 µM | TGI [8]: > 100 µM

Cc1ccc(S(=O)(=O)OCCN(CCOS(=O)(=O)c2ccc(C)cc2)c2ccc(C=O)cc2)cc1
TGI [1]: 44.3 µM | TGI [2]: > 100 µM | TGI [3]: 97.3 µM | TGI [9]: > 100 µM | TGI [4]: > 100 µM | TGI [5]: 53 µM | TGI [10]: > 100 µM | TGI [6]: 56 µM | TGI [7]: 41.3 µM | TGI [8]: > 100 µM

BrC1(c2ccccc2)C[n+]2c(-c3ccccc3)cc(-c3ccccc3)cc2-c2ccccc21 (stereo not given)
TGI [1]: 28 µM | TGI [2]: 20.6 µM | TGI [3]: 13.2 µM | TGI [9]: 3.45 µM | TGI [4]: 6.38 µM | TGI [5]: 1.34 µM | TGI [10]: 65.5 µM | TGI [6]: 0.466 µM | TGI [7]: 3.31 µM | TGI [8]: 15.5 µM

NCCCNc1nc2ccccc2c2c(=O)c3cc(Cl)ccc3sc12
GI50 [2]: 2.18 µM | TGI [2]: 3.68 µM | GI50 [9]: 1.69 µM | TGI [9]: 3.23 µM | GI50 [7]: 1.28 µM | TGI [7]: 2.58 µM

CCCCCCCCCCCCOCC(COP(=O)(O)OCCN=[N+]=[N-])OC(=O)CCCCCCCCCCC (stereo not given)
TGI [1]: > 100 µM | TGI [2]: > 100 µM | TGI [3]: > 100 µM | TGI [9]: > 100 µM | TGI [4]: > 100 µM | TGI [5]: > 100 µM | TGI [10]: > 100 µM | TGI [6]: > 100 µM | TGI [7]: > 100 µM | TGI [8]: > 100 µM

NC(=O)CSc1nc2ccccc2c(=O)n1N
TGI [1]: > 100 µM | TGI [2]: > 100 µM | TGI [3]: > 100 µM | TGI [9]: > 100 µM | TGI [4]: > 100 µM | TGI [5]: > 100 µM | TGI [10]: > 100 µM | TGI [6]: > 100 µM | TGI [7]: > 100 µM | TGI [8]: > 100 µM

C/C(CCN(C)C)=N/O
TGI [2]: 20.2 µM | TGI [3]: 10.8 µM | TGI [4]: 4.82 µM | TGI [5]: 25.5 µM | TGI [6]: 2.04 µM | TGI [7]: 31.5 µM | TGI [8]: 21.9 µM

CC(C)CNP(=O)(NCC(C)C)Oc1ccc(CC(NC(=O)OCc2ccccc2)C(=O)OCc2ccccc2)cc1 (stereo not given)
TGI [1]: 36.5 µM | TGI [2]: > 100 µM | TGI [3]: 34.9 µM | TGI [9]: 30.8 µM | TGI [4]: 41.1 µM | TGI [5]: 38.3 µM | TGI [10]: > 100 µM | TGI [6]: 16 µM | TGI [7]: 39 µM | TGI [8]: 67.7 µM

CCOC(=O)N1CCNCCN(C(=O)OCC)CCNCC1
TGI [1]: > 100 µM | TGI [2]: > 100 µM | TGI [9]: > 100 µM | TGI [4]: > 100 µM | TGI [10]: > 100 µM | TGI [6]: > 100 µM | TGI [7]: > 100 µM | TGI [8]: > 100 µM

COc1ccc(C2C(=O)c3ccc(OC)cc3OC2c2cccnc2)cc1 (stereo not given)
TGI [1]: > 100 µM | TGI [2]: > 100 µM | TGI [3]: > 100 µM | TGI [9]: > 100 µM | TGI [4]: > 100 µM | TGI [5]: > 100 µM | TGI [10]: > 100 µM | TGI [6]: > 100 µM | TGI [7]: > 100 µM | TGI [8]: > 100 µM

CC(C)Oc1cccc(N2C(CCc3c[nH]c4ccc(Br)cc34)=NS(=O)(=O)c3cnccc32)c1
TGI [1]: > 100 µM | TGI [2]: > 100 µM | TGI [3]: > 100 µM | TGI [9]: > 100 µM | TGI [4]: 92 µM | TGI [5]: > 100 µM | TGI [10]: > 100 µM | TGI [6]: > 100 µM | TGI [7]: > 100 µM | TGI [8]: > 100 µM

CCNC(=S)N/N=C(/C)c1cccc(/C(C)=N\NC(=S)NCC)n1
TGI [1]: > 100 µM | TGI [2]: 19.1 µM | TGI [3]: > 44.6 µM | TGI [9]: > 100 µM | TGI [4]: 14.7 µM | TGI [5]: > 51.1 µM | TGI [10]: 21.1 µM | TGI [6]: > 94 µM | TGI [7]: > 63.6 µM | TGI [8]: 19.9 µM

COC(=O)[C@H](C)NC(=O)[C@H](NS(=O)(=O)c1nc2ccccc2s1)c1ccccc1
TGI [1]: > 100 µM | TGI [2]: > 100 µM | TGI [9]: > 100 µM | TGI [4]: > 100 µM | TGI [5]: 30.5 µM | TGI [10]: > 100 µM | TGI [7]: 35.8 µM | TGI [8]: 22.9 µM

CC(C)(C)C(=O)c1c(O)c2ccccc2c2ccccc2c1=O
TGI [1]: > 100 µM | TGI [2]: > 100 µM | TGI [9]: > 100 µM | TGI [4]: > 100 µM | TGI [5]: > 100 µM | TGI [6]: > 100 µM | TGI [7]: > 100 µM | TGI [8]: > 100 µM

COc1ccc(/C(C=O)=C(\Cl)c2ccc(OC)c(OC)c2)cc1
TGI [1]: > 100 µM | TGI [2]: > 100 µM | TGI [3]: > 100 µM | TGI [4]: > 100 µM | TGI [6]: > 100 µM | TGI [7]: > 100 µM | TGI [8]: > 100 µM

O=C1Nc2noc(=O)nc2NO1
TGI [1]: > 200 µM | TGI [2]: > 200 µM | TGI [3]: > 200 µM | TGI [9]: > 200 µM | TGI [4]: > 200 µM | TGI [5]: > 200 µM | TGI [10]: > 200 µM | TGI [6]: > 200 µM | TGI [7]: > 200 µM | TGI [8]: > 200 µM

COc1cc2c(cc1O)NC(=O)[C@@H]1C[C@@H](O)CN1C2=O
TGI [1]: > 100 µM | TGI [2]: > 100 µM | TGI [3]: > 100 µM | TGI [9]: > 100 µM | TGI [4]: > 100 µM | TGI [5]: > 100 µM | TGI [10]: > 100 µM | TGI [6]: > 100 µM | TGI [7]: > 100 µM | TGI [8]: > 100 µM

C/C(=N\NC(=S)NC(C)(C)C)c1nc2ncccc2[nH]1
TGI [1]: > 100 µM | TGI [2]: > 100 µM | TGI [3]: 60.4 µM | TGI [9]: > 100 µM | TGI [4]: 23.7 µM | TGI [5]: > 100 µM | TGI [10]: > 84.4 µM | TGI [6]: > 100 µM | TGI [7]: 5.82 µM | TGI [8]: > 100 µM

C=CCOC(C)(C)C1=CCC(C)CC1 (stereo not given)
TGI [1]: > 100 µM | TGI [2]: > 100 µM | TGI [3]: > 100 µM | TGI [9]: > 100 µM | TGI [4]: > 100 µM | TGI [5]: > 100 µM | TGI [6]: > 100 µM | TGI [7]: > 100 µM | TGI [8]: > 100 µM

Cc1cc2nc(N3C(=O)/C(=C/Cc4ccco4)N=C3c3ccccc3)sc2cc1C
TGI [1]: > 100 µM | TGI [2]: > 100 µM | TGI [9]: 54 µM | TGI [4]: > 100 µM | TGI [5]: > 100 µM | TGI [10]: > 100 µM | TGI [6]: > 100 µM | TGI [7]: > 100 µM | TGI [8]: > 100 µM

CCCCCCCCCCCCCCCCNc1nc(=O)n(C2OC(C)C(O)C2O)cc1F (stereo not given)
TGI [1]: 50.8 µM | TGI [2]: 30.6 µM | TGI [3]: 40.7 µM | TGI [9]: 28.1 µM | TGI [4]: 62.2 µM | TGI [5]: 36.3 µM | TGI [10]: 43.8 µM | TGI [6]: 34.8 µM | TGI [7]: 27.2 µM | TGI [8]: 33.5 µM
